Our source for the IC50 values is patent US20220169654A1, “New Organic Compounds” (Servier Pharmaceuticals LLC, priority 2020, published 2022).

One assay addresses T1, MAT2A homodimer (Homo sapiens, UniProt P31153).
T1 construct: inferred from Ni sepharose purification with imidazole elution; made in house; host or cells: Sf9 insect cells, baculovirus (Bac to Bac, pFASTBAC1)
Nature of the assay: MAT2A inhibition (biochemical, liberated phosphate, PiColorLock Gold). The following applies: recombinant MAT2A homodimer; IC50 bin with Max Inh.; read-out: Enzyme Inhibition Bin. The procedure: Mat2A protein was expressed by recombinant baculovirus in SF9 infected cells using the Bac to Bac system cloned into the pFASTBAC1 vector (Invitrogen, Carlsbad, Calif.). Recombinant MAT2A was isolated from the cell lysate of 150 g of infected cells using HP Ni sepharose column chromatography. Recombinant MAT2A homodimer was eluted with 250 and 500 mM imidazole, and fractions containing MAT2A were identified by sodium dodecyl sulfate polyacrylamide gel electrophoresis and pooled.
For determination of the inhibitory potency of compounds against the MAT2A homodimer, protein was diluted to 4 μg/mL in assay buffer (50 mM Tris, pH 8.0, 50 mM KCl, 15 mM MgCl2, 0.3 mM EDTA, 0.005% [w/v] bovine serum albumin [BSA]). Test compound was prepared in 100% dimethyl sulfoxide (DMSO) at 50× the desired final concentration. A 1 μL volume of compound dilution was added to 40 μL of enzyme dilution and the mixture was allowed to equilibrate for 60 minutes at 25° C. The enzymatic assay was initiated by the addition of 10 μL of substrate mix (500 μM ATP, pH 7.0, 400 μM L-methionine in 1× assay buffer), and the mixture was incubated for a further 60 minutes at 25° C. The reaction was halted and the liberated phosphate released by the enzyme in stoichiometric amounts by the production of S-adenosyl methionine (SAM) was measured using the PiColorLock Gold kit (Innova Biosciences, UK). Absolute product amounts were determined by comparison to a standard curve of potassium phosphate buffer, pH 8.0. The compounds were also tested in a secondary assay utilizing 1 μg/mL MAT2A and incubated for 5 hours at 25° C. before halting and processing as above.
Specific compounds disclosed herein were tested in the foregoing assay and they were determined to inhibit MAT2A with an IC50. See, Table 1 below.

Assay [1] deals with SAM in HCT116 human colon carcinoma cell line with MTAP gene deleted (MTAP −/−). The assay is described as follows: Cellular assay of target engagement (SAM), LC-MS/MS, 72 hrs. It is filed as cell-based. The following applies: HCT-116, IC50 bin with Max Inh., read-out: Cell 72 h SAM Inhibition (MTAP −/−). Here is the method: Measurement of MAT2A activity in cells was made by direct quantitation of the abundance of the product of its enzymatic activity, SAM. Cancer cells were treated with candidate MAT2A inhibitors for a suitable incubation period, and the cells were then lysed using a reagent which quenched any further enzyme activity. Soluble metabolites including SAM were collected and SAM itself was directly measured from the lysate using quantitative LC-MS/MS.
A typical assay was performed using an HCT116 human colon carcinoma cell line which was genetically engineered to delete the MTAP gene (commercially available from Horizon Discovery). This cell line was utilized because it was determined that loss of the MTAP gene predicts sensitivity to MAT2A inhibitors. Cells were plated in 96-well dishes at appropriate cell density. Following 24 hours, cells were then treated with the candidate MAT2A inhibitor. Prior to addition to cells, the compound was first serially diluted in 100% DMSO, typically as a 3-fold serial dilution starting at 500× top dose with 10 dose points including DMSO only control. Compound was then transferred to a working stock plate in cell culture media by adding 5 μL of compound in DMSO to 495 μL of cell culture media. This working stock was then added to cells via a further 5-fold dilution, by adding 25 μL of working stock to 100 μL of cells in culture media. Following compound addition, cells were incubated at 37° C./5% CO2 for 72 hrs.
To quantitate SAM levels following compound treatment, cells were gently washed once in ammonium carbonate buffer (75 mM at pH 7.4), placed on dry ice, and lysed with metabolite extraction buffer (80% cold methanol and 20% water (v/v) with acetic acid at 1M final concentration with 200 ng/mL deuterated d3-SAM as internal control). Following centrifugation at 4° C. at 3,200 rpm for 30 minutes, the supernatant was collected and stored at −80° C. until analysis by Liquid Chromatography with tandem Mass Spectrometry (LC-MS/MS). LC-MS/MS analysis was performed using an API6500 Mass Spectrometer (Sciex, Framingham, Mass., USA) operating in positive ion spray mode and equipped with a Waters UPLC Acquity (Waters, Milford, Mass., USA) BEH Amide column. Multiple Reaction Monitoring data was acquired for SAM and the d3-SAM standard, using a mass transition pair at m/z 399.2→250.1 and 402.2→250.1, respectively. In a typical LC-MS/MS analysis, the initial flow rate was 0.5 ml/min of 25% mobile phase A (acetonitrile and water at 5:95 (v/v) with 1% formic acid and 10 mM ammonium acetate) and 75% mobile phase B (acetonitrile and water at 95:5 (v/v) with 1% formic acid and 10 mM ammonium acetate), 0.2-0.5 minutes with 75%-35% mobile phase B, 25%-65% mobile phase A, at 0.5 min 65% mobile phase A and 35% mobile phase B, 1.0-1.1 minutes with 35%-75% mobile phase B, 65%-25% mobile phase A, at 1.1 min 25% mobile phase A and 75% mobile phase B with a total run time of 1.5 minutes.
Specific compounds disclosed herein were tested in the foregoing assay and they were determined to inhibit SAM with an IC50. See, Table 1 below.

A further assay relates to HCT116 MTAP−/−. Nature of the assay: Inhibition of cellular proliferation, 4 days, Cell Titer Glo, HCT116 MTAP−/−. It is filed as cell-based. The settings on record: Homo sapiens, HCT-116, 96 h, IC50 bin with Max Inh., read-out: 4 Day Relative Growth Inhibition (MTAP −/−). The procedure: (§1) Test compound impact on cancer cell growth was assessed by treating cancer cells with compound for 4 days and then measuring proliferation using an ATP-based cell proliferation readout (Cell Titer Glo, Promega Corporation).
(§2) In a typical assay an isogenic pair of HCT116 human colon carcinoma cell lines which vary only in MTAP deletion status (HCT116 MTAP+/+ and HCT116 MTAP−/−) were plated in 96-well dishes at appropriate cell density. Following 24 hours, cells were then treated with the candidate MAT2A inhibitor. Prior to addition to cells, the compound was first serially diluted in 100% DMSO, typically as a 3-fold serial dilution starting at 500× top dose with 10 dose points including DMSO only control. Compound was then transferred to a working stock plate in cell culture media by adding 5 μL of compound in DMSO to 495 μL of cell culture media. This working stock was then added to cells via a further 5-fold dilution, by adding 25 μL of working stock to 100 μL of cells in culture media. Following compound addition, cells were incubated at 37° C./5% CO2 for 4 days.
(§3) To measure inhibition of cellular proliferation, cells were allowed to equilibrate to room temperature for 30 minutes, and were then treated with 125 μL of Cell Titer Glo reagent. The plate was then covered with aluminum foil and shaken for 15 minutes to ensure complete mixing and full cell lysis. Luminescent signal was then measured using a plate-based luminometer Veritas version 1.9.2 using ATP standard curve to confirm assay reproducibility from run to run. This luminescence measure was converted to a proliferation index by subtracting from each data point the ATP luminescence signal measured from a bank (no cells) well and dividing by the ATP luminescence signal measured in 0.2% DMSO control well adjusted for signal in blank well. Compound activity was then represented as a percentage change in proliferation relative to a within-plate DMSO control against log 10 of compound concentration in molar (M) units.
(§4) Specific compounds disclosed herein were tested in the foregoing assay and they were determined to inhibit cellular proliferation with an IC50. See, Table 1 below.
(In general: ATP-based viability assays read luminescence as a measure of living cells.)

The subject of the next assay is HCT116 MTAP+/+. Nature of the assay: Inhibition of cellular proliferation, 4 days, Cell Titer Glo, HCT116 MTAP+/+. The class given is cell-based. The settings on record: Homo sapiens, HCT-116, 96 h, IC50 bin with Max Inh., read-out: 4 Day Relative Growth Inhibition (MTAP +/+). The procedure: as §1, §2, §3, §4

T1 sequence (P31153 whole entry): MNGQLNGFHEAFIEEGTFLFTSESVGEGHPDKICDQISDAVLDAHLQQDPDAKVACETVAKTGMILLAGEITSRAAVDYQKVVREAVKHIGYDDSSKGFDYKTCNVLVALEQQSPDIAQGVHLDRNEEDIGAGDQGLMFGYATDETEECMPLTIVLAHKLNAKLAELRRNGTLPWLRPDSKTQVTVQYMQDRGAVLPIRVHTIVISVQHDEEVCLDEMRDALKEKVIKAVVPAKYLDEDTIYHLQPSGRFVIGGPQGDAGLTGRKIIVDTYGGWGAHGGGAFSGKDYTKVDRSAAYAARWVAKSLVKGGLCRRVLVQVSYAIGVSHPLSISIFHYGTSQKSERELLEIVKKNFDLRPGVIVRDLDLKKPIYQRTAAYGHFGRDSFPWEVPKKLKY

Take `Cn1cc2cc(-n3nc4ccn(CC5CC5)c4c(-c4ccc(OC(F)F)cc4)c3=O)ccc2n1` [Example 101, 5-(cyclopropylmethyl)-4-(4-(difluoromethoxy)phenyl)-2-(2-methyl-2H-indazol-5-yl)-2,5-dihydro-3H-pyrrolo[3,2-c]pyridazin-3-one]: the IC50 on MAT2A homodimer is below 100 nM; in assay [1], below 100 nM; in the assay on HCT116 MTAP−/−, below 100 nM; in the assay on HCT116 MTAP+/+, above 1000 nM.

In the case of `Cn1cc2cc(-n3nc4c(C#N)cn(CC5CC5)c4c(-c4ccc(OC(F)F)cc4)c3=O)ccc2n1` [Example 102, 5-(cyclopropylmethyl)-4-(4-(difluoromethoxy)phenyl)-2-(2-methyl-2H-indazol-5-yl)-3-oxo-3,5-dihydro-2H-pyrrolo[3,2-c]pyridazine-7-carbonitrile], the IC50 is below 100 nM at MAT2A homodimer, below 100 nM in assay [1], below 100 nM with HCT116 MTAP−/− and above 1000 nM in the assay with HCT116 MTAP+/+.

For `Cc1ccc(-c2c(=O)n(-c3ccc4nn(C)cc4c3)nc3ccn(CC4CC4)c23)cn1` [Example 103, 5-(cyclopropylmethyl)-2-(2-methyl-2H-indazol-5-yl)-4-(6-methylpyridin-3-yl)-2,5-dihydro-3H-pyrrolo[3,2-c]pyridazin-3-one], the IC50 at MAT2A homodimer is below 100 nM; in assay [1] it was below 100 nM; in the assay on HCT116 MTAP−/− it was below 100 nM; in the assay on HCT116 MTAP+/+ it was 100 to 1000 nM.

Regarding `Cc1ccc(-c2c(=O)n(-c3ccc4nn(C)cc4c3)nc3c(C#N)cn(CC4CC4)c23)cn1` [Example 104, 5-(cyclopropylmethyl)-2-(2-methyl-2H-indazol-5-yl)-4-(6-methylpyridin-3-yl)-3-oxo-3,5-dihydro-2H-pyrrolo[3,2-c]pyridazine-7-carbonitrile], the IC50 is below 100 nM on MAT2A homodimer, below 100 nM in assay [1], below 100 nM in the assay with HCT116 MTAP−/− and above 1000 nM in the assay with HCT116 MTAP+/+.

As to `Cn1cc2cc(-n3nc4ccn(CCC(F)(F)F)c4c(-c4ccc(OC(F)F)cc4)c3=O)ccc2n1` [Example 105, 4-(4-(difluoromethoxy)phenyl)-2-(2-methyl-2H-indazol-5-yl)-5-(3,3,3-trifluoropropyl)-2,5-dihydro-3H-pyrrolo[3,2-c]pyridazin-3-one], the IC50 at MAT2A homodimer was below 100 nM; in assay [1] it was below 100 nM; in the assay on HCT116 MTAP−/− it was below 100 nM; in the assay on HCT116 MTAP+/+ it was above 1000 nM.

`Cn1cc2cc(-n3nc4ccn(CC5CC5)c4c(-c4ccc(C5CC5)nc4)c3=O)ccc2n1` [Example 106, 5-(cyclopropylmethyl)-4-(6-cyclopropylpyridin-3-yl)-2-(2-methyl-2H-indazol-5-yl)-2,5-dihydro-3H-pyrrolo[3,2-c]pyridazin-3-one]: the IC50 on MAT2A homodimer was below 100 nM; in assay [1] it was below 100 nM; in the assay on HCT116 MTAP−/− it was below 100 nM; with HCT116 MTAP+/+, above 1000 nM.

`Cn1cc2cc(-n3nc4c(C#N)cn(CC5CC5)c4c(-c4ccc(C5CC5)nc4)c3=O)ccc2n1` [Example 107, 5-(cyclopropylmethyl)-4-(6-cyclopropylpyridin-3-yl)-2-(2-methyl-2H-indazol-5-yl)-3-oxo-3,5-dihydro-2H-pyrrolo[3,2-c]pyridazine-7-carbonitrile]: the IC50 on MAT2A homodimer was below 100 nM; in assay [1], below 100 nM; in the assay with HCT116 MTAP−/−, below 100 nM; in the assay on HCT116 MTAP+/+ it was 100 to 1000 nM.

As for `Cn1cc2cc(-n3nc4c(S(C)(=O)=O)cn(CC5CC5)c4c(-c4ccc(C5CC5)cc4)c3=O)ccc2n1` [Example 262, 5-(cyclopropylmethyl)-4-(4-cyclopropylphenyl)-2-(2-methyl-2H-indazol-5-yl)-7-(methylsulfonyl)-2,5-dihydro-3H-pyrrolo[3,2-c]pyridazin-3-one], the IC50 at MAT2A homodimer is below 1000 nM.

`Cc1c(C#N)c2nn(-c3ccc4nn(C)cc4c3)c(=O)c(-c3ccc(C4CC4)nc3)c2n1CC1CC1` [Example 265, 5-(cyclopropylmethyl)-4-(6-cyclopropylpyridin-3-yl)-6-methyl-2-(2-methyl-2H-indazol-5-yl)-3-oxo-2H,3H,5H-pyrrolopyridazine-7-carbonitrile]: the IC50 on MAT2A homodimer is above 10000 nM.

For `Cc1ccc(-c2c(=O)n(-c3ccc4nn(C)cc4c3)nc3c(C#N)c(C)n(CC4CC4)c23)cn1` [Example 266, 5-(cyclopropylmethyl)-6-methyl-2-(2-methyl-2H-indazol-5-yl)-4-(6-methylpyridin-3-yl)-3-oxo-2H,3H,5H-pyrrolopyridazine-7-carbonitrile], on MAT2A homodimer, the IC50 is above 10000 nM.

For the compound `Cn1cc2cc(-n3nc4c(c(CC5CC5)cn4C)c(-c4ccc(OC(F)F)cc4)c3=O)ccc2n1` [Example 272, 5-(cyclopropylmethyl)-4-(4-(difluoromethoxy)phenyl)-7-methyl-2-(2-methyl-2H-indazol-5-yl)-2,7-dihydro-3H-pyrrolo[2,3-c]pyridazin-3-one], the IC50 on MAT2A homodimer was below 100 nM.
